Laboratory results published in ChEMBL document CHEMBL4364346, “Structure optimization of a new class of PPARγ antagonists” (Bioorg Med Chem, 2019).
≈ marks a conversion by molar mass, not a printed value. Calls of active or inactive are those of the source. The rule behind the calls is not given here.

What was measured:
[1] = Solubility of compound in PBS buffer pH 7.4 with 1% DMSO measured after 1 and 24 hrs; type: physicochemical; settings: PBS buffer with 1% DMSO
[2] = Metabolic stability in Sprague-Dawley rat liver microsomes assessed as half life at […] incubated for 60 mins; type: ADME, Microsome
[3] = Plasma concentration in Swiss CD1 mouse at 1 mg/kg, ip measured upto 3 hrs by LC-MS analysis; type: ADME, organism-based
[4] = AUC (0 to 3 hrs) in Swiss CD1 mouse at 1 mg/kg, ip measured upto 3 hrs by LC-MS analysis; type: ADME, organism-based; design: dose 1 mg/kg, time < 3 hr, route intraperitoneal; settings: in vivo
[5] = Tmax in Swiss CD1 mouse at 10 mg/kg, ip measured upto 7 hrs by LC-MS analysis; type: ADME, organism-based; settings: in vivo
[6] = AUC (0 to 4 hrs) in Swiss CD1 mouse at 10 mg/kg, ip measured upto 4 hrs by LC-MS analysis; type: ADME, organism-based; design: time < 4 hr, dose 10 mg/kg, route intraperitoneal; settings: in vivo
[7] = target: T1, Peroxisome proliferator-activated receptor gamma (Homo sapiens, UniProt P37231); test: Antagonist actvity in sGFP-tagged PPARgamma LBD (unknown origin) assessed as inhibition of rosiglitazone-induced PPARgamma activation incubated for 1 hr in presence of CBP-1 cofactor peptide by HTRF based cofactor recruitment assay
T1 sequence (P37231 whole entry): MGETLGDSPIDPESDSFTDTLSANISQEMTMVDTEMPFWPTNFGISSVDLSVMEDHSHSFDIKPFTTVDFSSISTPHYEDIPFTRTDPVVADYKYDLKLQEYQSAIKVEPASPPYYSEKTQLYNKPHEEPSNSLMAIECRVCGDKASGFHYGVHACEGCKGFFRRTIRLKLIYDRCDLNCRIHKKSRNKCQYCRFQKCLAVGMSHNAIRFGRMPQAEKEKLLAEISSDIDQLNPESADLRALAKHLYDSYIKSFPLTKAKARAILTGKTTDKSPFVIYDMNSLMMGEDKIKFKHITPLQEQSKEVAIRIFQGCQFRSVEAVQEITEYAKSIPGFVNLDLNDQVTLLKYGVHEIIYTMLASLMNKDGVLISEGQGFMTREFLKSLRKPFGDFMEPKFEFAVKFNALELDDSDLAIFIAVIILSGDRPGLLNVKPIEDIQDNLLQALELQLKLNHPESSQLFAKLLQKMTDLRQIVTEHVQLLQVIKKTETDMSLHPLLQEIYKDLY

[8] = target: T2, Bile acid receptor (Homo sapiens) (UniProt Q96RI1); test: Antagonist activity at recombinant human pFA-CMV fused FXR LBD transfected in HEK293T cells assessed as reduction in GW4064-induced FXR activation at 1 uM incubated for 12 to 14 hrs by dual glo luciferase reporter gene assay; type: cell-based
T2 sequence (whole entry): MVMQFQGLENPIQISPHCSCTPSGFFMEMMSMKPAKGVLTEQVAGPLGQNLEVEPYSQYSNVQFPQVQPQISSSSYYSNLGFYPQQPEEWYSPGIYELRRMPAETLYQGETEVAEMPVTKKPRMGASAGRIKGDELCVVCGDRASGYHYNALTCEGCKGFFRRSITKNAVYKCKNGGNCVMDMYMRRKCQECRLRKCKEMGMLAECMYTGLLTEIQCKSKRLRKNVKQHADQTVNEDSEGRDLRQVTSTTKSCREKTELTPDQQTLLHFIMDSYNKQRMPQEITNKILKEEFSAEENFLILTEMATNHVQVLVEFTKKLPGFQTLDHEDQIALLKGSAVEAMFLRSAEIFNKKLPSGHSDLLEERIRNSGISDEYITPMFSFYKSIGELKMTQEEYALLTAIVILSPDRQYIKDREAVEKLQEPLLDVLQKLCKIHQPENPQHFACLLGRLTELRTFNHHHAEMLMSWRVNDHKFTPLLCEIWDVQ

[9] = target: T3, Nuclear receptor subfamily 1 group I member 3 (Homo sapiens, UniProt Q14994); test: Antagonist activity at recombinant human pFA-CMV fused CAR LBD transfected in HEK293T cells assessed as reduction in CITCO-induced CAR activation at 1 uM incubated for 12 to 14 hrs by dual glo luciferase reporter gene assay; type: cell-based
T3 sequence (Q14994 whole entry): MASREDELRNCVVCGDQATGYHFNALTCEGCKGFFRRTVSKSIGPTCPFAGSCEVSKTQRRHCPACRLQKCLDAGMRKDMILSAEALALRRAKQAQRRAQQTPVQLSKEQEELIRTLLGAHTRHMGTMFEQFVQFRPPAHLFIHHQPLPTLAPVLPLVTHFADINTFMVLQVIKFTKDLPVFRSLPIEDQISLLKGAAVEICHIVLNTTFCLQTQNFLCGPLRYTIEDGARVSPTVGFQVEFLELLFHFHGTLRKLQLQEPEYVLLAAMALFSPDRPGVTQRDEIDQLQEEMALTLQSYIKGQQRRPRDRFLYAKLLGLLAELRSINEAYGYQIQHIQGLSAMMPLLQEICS

[10] = target: Oxysterols receptor LXR-alpha (Homo sapiens) (UniProt Q13133); test: Agonist activity at recombinant human pFA-CMV fused LXRalpha LBD transfected in HEK293T cells assessed as LXRalpha activation at 1 uM incubated for 12 to 14 hrs by dual glo luciferase reporter gene assay
Chain of Oxysterols receptor LXR-alpha (Homo sapiens) (Q13133 whole entry, looked up, the tested form may be a part): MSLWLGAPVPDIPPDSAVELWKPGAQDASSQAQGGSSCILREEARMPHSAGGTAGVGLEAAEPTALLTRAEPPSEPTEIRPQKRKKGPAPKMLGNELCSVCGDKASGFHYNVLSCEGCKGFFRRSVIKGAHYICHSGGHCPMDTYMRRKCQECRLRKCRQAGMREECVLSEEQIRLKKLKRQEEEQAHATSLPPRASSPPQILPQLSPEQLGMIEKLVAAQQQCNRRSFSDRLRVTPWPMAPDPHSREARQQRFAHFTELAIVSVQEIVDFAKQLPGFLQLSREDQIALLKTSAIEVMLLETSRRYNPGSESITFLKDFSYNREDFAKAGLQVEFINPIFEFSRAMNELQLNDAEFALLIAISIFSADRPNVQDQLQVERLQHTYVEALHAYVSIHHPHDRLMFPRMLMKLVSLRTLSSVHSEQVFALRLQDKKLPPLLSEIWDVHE

[11] = target: Oxysterols receptor LXR-alpha (Homo sapiens) (UniProt Q13133); test: Antagonist activity at recombinant human pFA-CMV fused LXRalpha LBD transfected in HEK293T cells assessed as reduction in T0901317-induced LXRalpha activation at 1 uM incubated for 12 to 14 hrs by dual glo luciferase reporter gene assay

solubility at 24 h [1] [µM]	half-life [2] [min]	concentration at 3 h [3] [nM]	AUC(0-t) at 3 h [4] [ng·h/mL]	Tmax [5] [h]	AUC(0-t) at 4 h [6] [ng·h/mL]	IC50 [7] [µM]	Activity [8]	Activity [9]	Activity [10]	Activity [11]	SMILES
200 to 250 (≈ 118 to 147 µg/mL)	> 60	9.5	112	0.25	598	6.4	inactive	Not Active	inactive	inactive	CCC/C(=C\c1cc(OCc2ccc3nc(C(F)(F)F)cc(OC)c3c2)ccc1OCCN1CCN(C)CC1)C(=O)O
125 to 150 (≈ 71.6 to 85.9 µg/mL)	> 60	14	101	2	650	–	inactive	Not Active	inactive	inactive	CCC/C(=C\c1cc(OCc2ccc3nc(C(F)(F)F)cc(OC)c3c2)ccc1OCC1CCN(C)CC1)C(=O)O
